Measured values published in article PMC11374673, “Discovery of isoquinoline sulfonamides as allosteric gyrase inhibitors with activity against fluoroquinolone-resistant bacteria” (Nature Chemistry, 2024).
Where “and” joins values, the source holds several entries; their conditions need not be identical. Equal values may be shown once. Values belong to the compound of their own block, whether it stands above or below them.

What was measured:
[1] = tested on: E. coli W3110; assay: MIC by broth microdilution; type: cell-based, Escherichia coli
Method in brief: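 Exponential-phase cultures (OD600 0.5, 37 °C aerobic), diluted 100-fold in CAMHB, were added to twofold compound dilution series. Keio strains grown with 50 µg ml^−1 kanamycin. Plates incubated overnight at 37 °C, shaking at 600 r.p.m.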

[2] = tested on: 60-resistant (60-r) isolates of E. coli W3110; assay: microbe, parasite or virus in culture; type: cell-based, Escherichia coli
Description: MIC was determined by broth microdilution. Single-colony cultures were grown to exponential phase (OD600 of 0.5) aerobically at 37 °C. In case of strains from the Keio collection, 50 µg ml^−1 kanamycin was supplemented to the media to ascertain a homogeneous population. The bacterial suspensions were diluted 100-fold in CAMHB and 50 µl was added to a twofold serial dilution series of test compounds (50 µl per well) in polypropylene 96-well microtitre plates to reach a volume of 100 µl. The plates were sealed with breathable membranes and incubated overnight at 37 °C with constant shaking (600 r.p.m.). The MIC was determined as the lowest concentration at which no visible bacterial growth was observed as compared with the inoculum controls from the median of a minimum of triplicates.
The plates were incubated at 37 °C and checked for growth after 24 and 48 h. […] Nine colonies with an increased MIC were selected for further analysis and stored as glycerol stocks.

[3] = tested on: E. coli W3110; assay: H-89 derivatives rescreen, 50 µM; type: cell-based; settings: Escherichia coli, H-89 derivative rescreen, highest 50 µM
Description: From glycerol stocks, E. coli W3110 was cultured on blood agar plates (PB5039A, Thermo Scientific) by overnight (18 ± 2 h) aerobic incubation at 37 °C. A single colony was transferred to tryptic soy broth (TSB, 02-200-500, Scharlab). The cultures were grown to exponential phase (OD600 of 0.5) at 37 °C. The bacterial suspensions were diluted 200-fold in cation-adjusted Mueller–Hinton broth (CAMHB) and 99 µl was added to a library of test compounds (1 µl 10 mM DMSO stock, per well in technical duplicates) in polypropylene 96-well microtitre plates to reach a volume of 100 µl and a final concentration of 100 µM for each test compound and a maximum of 1% DMSO. […] Screening hits were selected from the wells where no visible bacterial growth was observed, as compared with the inoculum controls containing 1% DMSO. The follow-up screen of H-89 derivatives was performed under similar conditions with a final concentration of 50 µM.

[4] = tested on: E. coli W3110; assay: Time-kill assay
Description: From glycerol stocks, bacterial strains were cultured on blood agar plates by overnight incubation at 37 °C. Subsequently, a single colony was cultured in TSB overnight at 37 °C. The culture was diluted 100-fold in fresh CAMHB and grown until early exponential phase (OD600 of 0.25) followed by 100-fold dilution in media. The culture was split in separate culture tubes containing 2 ml. […] The supernatant was discarded and pellets were washed once with filter-sterilized PBS, then resuspended in an equal volume of fresh buffer and samples were tenfold serially diluted until a 10^5 dilution. Then, 10 µl of the appropriate dilutions were inoculated on LB agar plates in technical duplicates, subsequently allowed to evaporate and incubated at 37 °C for 18 h. The colonies were counted and used to calculate the colony forming unit (c.f.u.) per ml remaining in the original culture by taking the dilution factors into account. The experiment was performed in biological duplicates.

[5] = Escherichia coli, W3110, read-out: MIC E. coli W3110
[6] = Escherichia coli, E. coli W3110 60-r1
[7] = Escherichia coli, E. coli W3110 60-r3
[8] = Escherichia coli, E. coli W3110 60-r6
[9] = WT, broth microdilution, read-out: MIC E. coli W3110

Compound: CC(C)(O/N=C(\C(=O)N[C@@H]1C(=O)N2C(C(=O)[O-])=C(C[n+]3ccccc3)CS[C@H]12)c1csc(N)n1)C(=O)O [Ceftazidime]
MIC ([1]; Escherichia coli, W3110): 0.4 µg/mL
MIC [1, 5]: 0.75 µM
MIC [2, 6]: 0.375 µM and 0.2 µg/mL
MIC [2, 7]: 0.75 µM and 0.4 µg/mL
MIC [2, 8]: 0.75 µM and 0.4 µg/mL

Compound: Colistin
MIC ([1]; E. coli W3110): 0.5 µg/mL
MIC [1, 9]: 0.19 µM
MIC ([2]; E. coli W3110 60-r1): 0.375 µM and 1 µg/mL
MIC ([2]; E. coli W3110 60-r3): 0.375 µM and 1 µg/mL
MIC ([2]; E. coli W3110 60-r6): 0.19 µM and 0.5 µg/mL

Compound: O=S(=O)(NCCNC/C=C/c1ccc(-c2cccnc2)cc1)c1cccc2ccccc12 [Compound 6]
MIC [3]: > 50 µM

Compound: Clc1cnc(N2CCCC2)nc1Nc1n[nH]c2ccccc12 [Compound 26]
MIC [3]: > 50 µM

Compound: Nc1nccc2c(S(=O)(=O)NCCNC/C=C/c3ccc(-c4cccnc4)cc3)cccc12 [Compound 34]
MIC [3]: > 50 µM

Compound: CC(C)(C)c1cc(C(=O)NCC#Cc2cccnc2)no1 [Compound 32]
MIC [3]: > 50 µM

Compound: CC(C)(C)c1cc(NC(=O)CCC#Cc2ccc(N)nc2)no1 [Compound 29]
MIC [3]: > 50 µM

Compound: O=C(N[C@H](CO)[C@H](O)c1ccc([N+](=O)[O-])cc1)C(Cl)Cl [Chloramphenicol]
MIC ([1]; Escherichia coli, W3110): 4 µg/mL
MIC [1, 5]: 12.4 µM
MIC [2, 6]: 12.4 µM and 4 µg/mL
MIC [2, 7]: 12.4 µM and 4 µg/mL
MIC [2, 8]: 12.4 µM and 4 µg/mL

Compound: CC(C)(C)c1cc(C(=O)NCC#Cc2cnc3[nH]ccc3c2)no1 [Compound 31]
MIC [3]: > 50 µM

Compound: O=S(=O)(NCCNC/C=C/c1ccccc1-c1ccc2c(c1)OCO2)c1cccc2cnccc12 [Compound 46]
MIC [3]: > 50 µM

Compound: CC(C)(C)c1cc(NC(=O)CCC#Cc2ccncc2)no1 [Compound 33]
MIC [3]: > 50 µM

Compound: CC(C)(C)c1cc(NC(=O)CCC#Cc2cnc3[nH]ccc3c2)no1 [Compound 28]
MIC [3]: > 50 µM

Compound: Neomycin
MIC ([1]; E. coli W3110): 1 µg/mL
MIC [1, 9]: 1.5 µM
MIC ([2]; E. coli W3110 60-r1): 0.75 µM and 0.5 µg/mL
MIC ([2]; E. coli W3110 60-r3): 1.5 µM and 1 µg/mL
MIC ([2]; E. coli W3110 60-r6): 0.75 µM and 0.5 µg/mL

Compound: O=S(=O)(NCCNC/C=C/c1ccc(-c2ccccc2)cc1)c1cccc2ccccc12 [Compound 4]
MIC [3]: > 50 µM

Compound: O=S(=O)(NCCNC/C=C/c1ccc(-c2ccc3ccccc3c2)cc1)c1cccc2cnccc12 [Compound 3]
MIC [3]: > 50 µM

Compound: O=S(=O)(NCCNC/C=C/c1ccc(-c2ccccc2)cc1)c1cccc2cnccc12 [Compound 2]
MIC [3]: > 50 µM

Compound: CN(CCNC/C=C/c1ccc(-c2cccnc2)cc1)S(=O)(=O)c1cccc2cnccc12 [Compound 8]
MIC [3]: > 50 µM

Compound: C[C@@H](O)[C@H]1C(=O)N2C(C(=O)O)=C(SCCN=CN)C[C@H]12 [Imipenem]
MIC ([1]; Escherichia coli, W3110): 0.1 µg/mL
MIC [1, 5]: 0.375 µM
MIC [2, 6]: 0.75 µM and 0.2 µg/mL
MIC [2, 7]: 0.375 µM and 0.1 µg/mL
MIC [2, 8]: 0.375 µM and 0.1 µg/mL

Compound: CC(C)(C)c1cc(NC(=O)CCC#Cc2cccnc2)no1 [Compound 27]
MIC [3]: > 50 µM

Compound: CN(CCNCCCc1ccc(-c2cccnc2)cc1)S(=O)(=O)c1cccc2cnccc12 [Compound 10]
MIC [3]: > 50 µM

Compound: COc1cc(Cc2cnc(N)nc2N)cc(OC)c1OC [TMP, trimethoprim]
MIC ([1]; Escherichia coli, W3110): 0.16 µg/mL
MIC [1, 5]: 0.375 µM
MIC [2, 6]: 0.375 µM and 0.16 µg/mL
MIC [2, 7]: 0.18 µM and 0.08 µg/mL
MIC [2, 8]: 0.375 µM and 0.16 µg/mL
time kill kinetics, bacterial count ([4]; 4xMIC, 0.5 h, n = 1 and n = 2): 5.161 and 5.204
time kill kinetics, bacterial count ([4]; 4xMIC, 1 h): 5.041 and 5.342
time kill kinetics, bacterial count ([4]; 4xMIC, 2 h): 5.322 and 4.954
time kill kinetics, bacterial count ([4]; 4xMIC, 4 h): 4.255 and 4.204
time kill kinetics, bacterial count ([4]; 4xMIC, 8 h): 2.845 and 2.602
time kill kinetics, bacterial count ([4]; 4xMIC, 24 h): 2
time kill kinetics, bacterial count ([4]; 8xMIC, 0.5 h): 6.217 and 6.23
time kill kinetics, bacterial count ([4]; 8xMIC, 1 h): 4.978 and 5.097
time kill kinetics, bacterial count ([4]; 8xMIC, 2 h): 5.176 and 4.929
time kill kinetics, bacterial count ([4]; 8xMIC, 4 h): 3.544 and 3.423
time kill kinetics, bacterial count ([4]; 8xMIC, 8 h): 2.699
time kill kinetics, bacterial count ([4]; 8xMIC, 24 h): 2.301 and 2

Compound: CS(=O)(=O)NCCNC/C=C/c1ccc(-c2cccnc2)cc1 [Compound 36]
MIC [3]: > 50 µM

Compound: CN(C/C=C/c1ccc(-c2cccnc2)cc1)CCNS(=O)(=O)c1cccc2cnccc12 [Compound 9]
MIC [3]: > 50 µM

Compound: C[C@@H](O)[C@H]1C(=O)N2C(C(=O)O)=C(S[C@@H]3CN[C@H](C(=O)N(C)C)C3)[C@H](C)[C@H]12 [Meropenem]
MIC ([1]; Escherichia coli, W3110): 0.02 µg/mL
MIC [1, 5]: 0.05 µM
MIC [2, 6]: 0.09 µM and 0.04 µg/mL
MIC [2, 7]: 0.05 µM and 0.02 µg/mL
MIC [2, 8]: 0.05 µM and 0.02 µg/mL

Further lines, results first:

MIC [3]: > 50 µM
Compound: O=S(=O)(NCCNCCCc1ccc(-c2cnc3[nH]ccc3c2)cc1)c1ccc(Cl)c(Cl)c1 [Compound 22]

MIC [3]: > 50 µM
Compound: O=C(CCc1ccc(-c2cnc3[nH]ccc3c2)cc1)NCCNS(=O)(=O)c1ccc(F)cc1 [Compound 25]

MIC [3]: > 50 µM
Compound: O=C(CCc1ccc(-c2cnc3[nH]ccc3c2)cc1)NCCNS(=O)(=O)c1cccc2cnccc12 [Compound 44]

MIC [3]: > 50 µM
Compound: O=S(=O)(NCCNCCCc1ccc(-c2cnc3[nH]ccc3c2)cc1)c1ccccc1 [Compound 19]

MIC [3]: > 50 µM
Compound: Nc1ccc(-c2ccc(CCC(=O)NCCNS(=O)(=O)c3cccc4cnccc34)cc2)cn1 [Compound 41]

MIC [3]: > 50 µM
Compound: Cc1ccc(S(=O)(=O)NCCNCCCc2ccc(-c3cnc4[nH]ccc4c3)cc2)cc1 [Compound 18]

MIC [3]: > 50 µM
Compound: O=S(=O)(NCCNCCCc1ccc(-c2cnc3[nH]ccc3c2)cc1)c1cccc2cnccc12 [Compound 45]

MIC [3]: > 50 µM
Compound: COc1ccc(S(=O)(=O)NCCNCCCc2ccc(-c3cnc4[nH]ccc4c3)cc2)cc1 [Compound 20]

MIC [3]: > 50 µM
Compound: Cc1ccc(S(=O)(=O)NCCNC(=O)CCc2ccc(-c3cnc4[nH]ccc4c3)cc2)cc1 [Compound 15]

MIC [3]: > 50 µM
Compound: COc1ccc(S(=O)(=O)NCCNC(=O)CCc2ccc(-c3cnc4[nH]ccc4c3)cc2)cc1 [Compound 16]

MIC [3]: > 50 µM
Compound: O=C(/C=C/c1ccc(-c2cccnc2)cc1)NCCNS(=O)(=O)c1cccc2cnccc12 [Compound 38]

MIC [3]: > 50 µM
Compound: O=C(CCc1ccc(-c2cnc3[nH]ccc3c2)cc1)NCCNS(=O)(=O)c1cccc(Cl)c1 [Compound 24]

MIC [3]: > 50 µM
Compound: O=[N+]([O-])c1ccccc1S(=O)(=O)NCCNC/C=C/c1ccc(-c2cccnc2)cc1 [Compound 7]

MIC [3]: > 50 µM
Compound: O=C(CCc1ccc(-c2cnc3[nH]ccc3c2)cc1)NCCNS(=O)(=O)c1ccc(Cl)cc1 [Compound 13]

MIC [3]: > 50 µM
Compound: O=C(CCc1ccc(-c2cnc3[nH]ccc3c2)cc1)NCCNS(=O)(=O)c1cccc([N+](=O)[O-])c1 [Compound 23]

MIC [3]: > 50 µM
Compound: O=S(=O)(NCCNCCCCc1ccc(-c2cccnc2)cc1)c1cccc2cnccc12 [Compound 39]

MIC [3]: > 50 µM
Compound: O=S(=O)(NCCCCCCc1ccc(-c2cccnc2)cc1)c1cccc2cnccc12 [Compound 11]

MIC [3]: > 50 µM
Compound: Nc1ncccc1-c1ccc(CCC(=O)NCCNS(=O)(=O)c2cccc3cnccc23)cc1 [Compound 40]

MIC [3]: > 50 µM
Compound: O=C(CCC#Cc1cnc2[nH]ccc2c1)NCCNS(=O)(=O)c1cccc2cnccc12 [Compound 21]

MIC [3]: > 50 µM
Compound: CNC(=O)c1ncccc1-c1ccc(CCC(=O)NCCNS(=O)(=O)c2cccc3cnccc23)cc1 [Compound 43]
